US20080188478A1, “Compounds Useful In Therapy” (Pfizer Inc., priority 2005, published 2008)

Columns and labels:
human V1A receptor = human V1A receptor (Homo sapiens, UniProt P37288); assay: V1A filter binding assay ([3H]-AVP binding to CHO-hV1A membranes); settings: screen 1.0, Ki by Cheng-Prusoff equation
Description: 1.0 V1A Filter Binding Assay
Receptor binding assays were performed on cellular membranes prepared from CHO cells stably expressing the human V1A receptor, (CHO-hV1A). The CHO-hV1A cell line was kindly provided under a licensing agreement by Marc Thibonnier, Dept. of Medicine, Case Western Reserve University School of Medicine, Cleveland, Ohio. CHO-hV1A cells were routinely maintained at 37° C. in humidified atmosphere with 5% CO2 in DMEM/Hams F12 nutrient mix supplemented with 10% fetal bovine serum, 2 mM L-glutamine, 15 mM HEPES and 400 μg/ml G418. For bulk production of cell pellets, adherent CHO-hV1A cells were grown to confluency of 90-100% in 850 cm^2 roller bottles containing a medium of DMEM/Hams F12 Nutrient Mix supplemented with 10% fetal bovine serum, 2 mM L-glutamine and 15 mM HEPES. Confluent CHO-hV1A cells were washed with phosphate-buffered saline (PBS), harvested into ice cold PBS and centrifuged at 1,000 rpm. Cell pellets were stored at −80° C. until use. When required, the cell pellets were thawed on ice and homogenised in membrane preparation buffer consisting of 50 mM Tris-HCl, pH 7.4, 5 mM MgCl2 and supplemented with a protease inhibitor cocktail, (Roche). The cell homogenate was centrifuged at 1000 rpm, 10 min, 4° C. and the supernatant was removed and stored on ice. The remaining pellet was homogenised and centrifuged as before. The supernatants were pooled and centrifuged at 25,000×g for 30 min at 4° C. The pellet was resuspended in freezing buffer consisting of 50 mM Tris-HCl, pH 7.4, 5 mM MgCl2 and 20% glycerol and stored in small aliquots at −80° C. until use. Protein concentration was determined using Bradford reagent and BSA as a standard.
Protein linearity, followed by saturation binding studies were performed on each new batch of membrane. A membrane concentration was chosen that gave specific binding on the linear portion of the curve. Saturation binding studies were then performed using various concentrations of [^3H]-arginine vasopressin, [^3H]-AVP (0.05 nM-100 nM) and the Kd and Bmax were determined. […] The plates were sealed and counted on a TopCount Microplate Scintillation Counter (Packard Instruments). Non-specific binding (NSB) was determined using 1 μM unlabelled d(CH2)5Tyr(Me)AVP ([β-mercapto-β,β-cyclopentamethylenepropionyl, 0-Me-Tyr^2, Arg^8]-vasopressin) (βMCPVP), (Sigma). The radioligand binding data was analysed using a four parameter logistic equation with the min forced to 0%. […] Specific binding was calculated by subtracting the mean NSB cpm from the mean Total cpm. For test compounds the amount of ligand bound to the receptor was expressed as % bound=(sample cpm−mean NSB cpm)/specific binding cpm×100. […]

human V1A receptor, sequence (P37288 whole entry): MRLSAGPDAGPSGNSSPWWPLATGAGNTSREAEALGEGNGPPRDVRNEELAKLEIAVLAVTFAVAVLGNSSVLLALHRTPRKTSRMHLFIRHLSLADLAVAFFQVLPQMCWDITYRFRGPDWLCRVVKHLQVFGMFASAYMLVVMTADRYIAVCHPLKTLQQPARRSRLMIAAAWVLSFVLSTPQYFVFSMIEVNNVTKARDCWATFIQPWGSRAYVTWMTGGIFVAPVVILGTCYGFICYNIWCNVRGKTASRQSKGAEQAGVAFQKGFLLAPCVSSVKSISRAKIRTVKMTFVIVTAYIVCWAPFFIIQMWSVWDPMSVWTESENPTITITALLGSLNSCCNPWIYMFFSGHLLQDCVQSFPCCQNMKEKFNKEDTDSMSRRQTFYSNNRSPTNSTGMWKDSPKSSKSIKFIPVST

Compound	Ki (human V1A receptor) [nM]	melting point [°C]
O=c1oc2cccnc2n1C1CCN(c2nnc(Cn3nccn3)n2-c2ccc(Cl)cc2)CC1 [Example 7, 3-{1-[4-(4-chlorophenyl)-5-(2H-1,2,3-triazol-2-ylmethyl)-4H-1,2,4-triazol-3-yl]piperidin-4-yl}[1,3]oxazolo[4,5-b]pyridin-2(3H)-one]	1.1	
Cc1nnc(C2CCN(c3noc4cccnc34)CC2)n1-c1ccc(Cl)cc1 [Example 29, 3-{4-[4-(4-Chlorophenyl)-5-methyl-4H-1,2,4-triazol-3-yl]piperidin-1-yl}isoxazolo[4,5-b]pyridine]	1.04	
Cc1nnc(N2CCC(N3c4ccccc4N(C)S3(=O)=O)CC2)n1-c1ccc(Cl)cc1 [Example 18, 1-{1-[4-(4-Chlorophenyl)-5-methyl-4H-1,2,4-triazol-3-yl]piperidin-4-yl}-3-methyl-1,3-dihydro-2,1,3-benzothiadiazole 2,2-dioxide]		210 to 212

Results, then the compound that gave them:

Ki (human V1A receptor) [nM]	melting point [°C]	Compound
0.49		Cc1nnc(N2CCN(c3nsc4ccccc34)CC2)n1-c1ccc(Cl)cc1 [Example 20, 3-{4-[4-(4-Chlorophenyl)-5-methyl-4H-1,2,4-triazol-3-yl]piperazin-1-yl}-1,2-benzisothiazole]
0.79		FC(F)(F)c1nnc(N2CCN(c3nsc4ccccc34)CC2)n1-c1ccc(Cl)cc1 [Example 22, 3-{4-[4-(4-Chlorophenyl)-5-(trifluoromethyl)-4H-1,2,4-triazol-3-yl]piperazin-1-yl}-1,2-benzisothiazole]
